# Laboratory results reported in patent US10174037B2, “Dihydropyrazolopyrimidinone compounds as PDE2 inhibitors” (Merck Sharp & Dohme Corp., priority 2015, dated 2019).
# Molecular target: human PDE2A1 (Homo sapiens (Human), UniProt O00408)
# Test: PDE selectivity IMAP FP assay, human PDE2A1
# Format: biochemical
# Settings: Human PDE2; Lab B; read-out: Human PDE2 Ki (nM) Lab B
# Method: Selectivity for PDE2, as compared to other PDE families, was assessed using the IMAP® technology. Human PDE10A2 enzyme was prepared from cytosolic fractions of transiently transfected HEK cells.
# A Labcyte POD 810 (Labcyte, Sunnyvale, Calif.) was used to dispense 200 nL from each well of the titration plate to make eleven copies of the assay plate for each titration, one copy for each PDE enzyme. A solution of each enzyme (dilution from aliquots, sufficient to produce 20% substrate conversion) and a separate solution of FAM-labeled cAMP or FAM-labeled cGMP from Molecular Devices (Sunnyvale, Calif., product # R7506 or cGMP#R7508), at a final concentration of 50 nM were made in the assay buffer (10 mM Tris HCl, pH 7.2, 10 mM MgCl2, 0.05% NaN3 0.01% Tween-20, and 1 mM DTT). Note that the substrate for PDE2 is 50 nM FAM cAMP containing 1000 nM of cGMP. The enzyme and the substrate were then added to the assay plates in two consecutive additions of 10 μL and then shaken to mix. The reaction was allowed to proceed at room temperature for 60 minutes. A binding solution was then made from the kit components, comprised of 80% Solution A, 20% Solution B and binding reagent at a volume of 1/600 the total binding solution. The enzymatic reaction was stopped by addition of 60 μL of the binding solution to each well of the assay plate. […] The plates were incubated at room temperature for one hour, then the parallel and perpendicular fluorescence was measured using a Tecan Genios Pro plate reader (Tecan, Switzerland). […] The intrinsic PDE2 inhibitory activity of a compound which may be used in accordance with the present invention may be determined by these assays. […]
# The PDE2 Ki is a measure of the ability of the test compound to inhibit the action of the PDE2 enzyme.
# Chain of human PDE2A1 (O00408 other isoform, or with tags, fused parts or gaps): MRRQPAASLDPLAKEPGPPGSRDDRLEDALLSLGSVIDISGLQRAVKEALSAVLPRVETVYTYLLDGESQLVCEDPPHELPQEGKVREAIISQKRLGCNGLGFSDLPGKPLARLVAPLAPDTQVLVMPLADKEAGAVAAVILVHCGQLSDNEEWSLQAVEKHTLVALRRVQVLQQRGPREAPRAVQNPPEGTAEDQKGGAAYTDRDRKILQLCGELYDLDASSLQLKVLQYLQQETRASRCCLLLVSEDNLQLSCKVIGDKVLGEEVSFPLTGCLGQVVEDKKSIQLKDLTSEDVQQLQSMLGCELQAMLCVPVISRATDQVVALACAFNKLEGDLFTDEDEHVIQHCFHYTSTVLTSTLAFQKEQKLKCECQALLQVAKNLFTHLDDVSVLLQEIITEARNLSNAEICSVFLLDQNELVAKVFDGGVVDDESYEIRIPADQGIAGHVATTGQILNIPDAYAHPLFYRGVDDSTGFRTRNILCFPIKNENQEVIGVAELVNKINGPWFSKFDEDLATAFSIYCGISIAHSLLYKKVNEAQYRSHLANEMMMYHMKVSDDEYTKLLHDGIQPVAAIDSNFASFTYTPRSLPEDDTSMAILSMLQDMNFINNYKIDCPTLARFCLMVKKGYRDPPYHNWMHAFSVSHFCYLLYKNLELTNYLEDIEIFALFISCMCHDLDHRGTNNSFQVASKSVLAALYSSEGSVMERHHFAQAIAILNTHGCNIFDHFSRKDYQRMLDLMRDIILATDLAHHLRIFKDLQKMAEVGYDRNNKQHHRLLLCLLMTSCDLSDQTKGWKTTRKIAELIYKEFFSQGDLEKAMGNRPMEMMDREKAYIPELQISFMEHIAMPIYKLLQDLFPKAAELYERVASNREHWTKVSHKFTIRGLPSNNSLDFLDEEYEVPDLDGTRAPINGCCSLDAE
row,Compound,Ki [nM]
1,"CCC(c1ccc(C(F)F)c(F)c1)n1nc(CF)c2c(=O)[nH]c(N(C)C)nc21 (single isomer, unassigned) [Example 345, (S)- or (R)-1-(1-(4-(Difluoromethyl)-3-fluorophenyl)propyl)-6-(dimethylamino)-3-(fluoromethyl)-1H-pyrazolo[3,4-d]pyrimidin-4(5H)-one]",0.13
2,"CC(C)(C)C(c1ccc(C(F)(F)F)c(F)c1)n1nc(CC(F)(F)F)c2c(=O)[nH]c(O)nc21 (single isomer, unassigned) [Example 246, (R)- or (S)-1-(1-(3-Fluoro-4-(trifluoromethyl)phenyl)-2,2-dimethylpropyl)-6-hydroxy-3-(2,2,2-trifluoroethyl)-1H-pyrazolo[3,4-d]pyrimidin-4(5H)-one]",408
3,"CC(c1ccc(C2CC2)cc1)n1nc(C(F)F)c2c(=O)[nH]c(O)nc21 (single isomer, unassigned) [Example 275, (R)- or (S)-1-(1-(4-Cyclopropylphenyl)ethyl)-3-(difluoromethyl)-6-hydroxy-1H-pyrazolo[3,4-d]pyrimidin-4(5H)-one]",416
4,"CC[C@@H](O)c1nn([C@@H](C)c2ccc(C(F)(F)F)cc2)c2nc(O)[nH]c(=O)c12 (mixture of isomers) [Example 295, (R,S)- and (R,R)- and (S,S)- and (S,R)-6-Hydroxy-3-(1-hydroxypropyl)-1-(1-(4-(trifluoromethyl)phenyl)ethyl)-1H-pyrazolo[3,4-d]pyrimidin-4(5H)-one]",168
5,"CC(C)C(c1ccc(C(C)(F)F)cc1)n1nc(CO)c2c(=O)[nH]c(N)nc21 (single isomer, unassigned) [Example 356]",0.68
6,"CC(c1ccc(C(F)(F)C(F)(F)F)cc1)n1nc(CO)c2c(=O)[nH]c(O)nc21 (single isomer, unassigned) [Example 31, (R)- or (S)-6-Hydroxy-3-(hydroxymethyl)-1-(1-(4-(perfluoroethyl)phenyl)ethyl)-1H-pyrazolo[3,4-d]pyrimidin-4(5H)-one]",50
7,"CN(C)c1nc2c(c(CO)nn2C(c2ccc(C(F)F)cc2)C2CC2)c(=O)[nH]1 (single isomer, unassigned) [Example 63]",3.2
8,"CC(C)(C)C(c1ccc(C(F)(F)F)cc1)n1nc(C(F)(F)F)c2c(=O)[nH]c(O)nc21 (single isomer, unassigned) [Example 337, (R)- or (S)-1-(2,2-Dimethyl-1-(4-(trifluoromethyl)phenyl)propyl)-6-hydroxy-3-(trifluoromethyl)-1H-pyrazolo[3,4-d]pyrimidin-4(5H)-one]",2360
9,"CCC(c1ccc(CC(F)(F)F)cc1)n1nc(CO)c2c(=O)[nH]c(N(C)C)nc21 (single isomer, unassigned) [Example 98, (R)- or (S)-6-(Dimethylamino)-3-(hydroxymethyl)-1-(1-(4-(2,2,2-trifluoroethyl)phenyl)propyl)-1H-pyrazolo[3,4-d]pyrimidin-4(5H)-one]",1.3
10,"CC(c1ccc(C(C)(F)F)c(F)c1)n1nc(CF)c2c(=O)[nH]c(N(C)C)nc21 (single isomer, unassigned) [Example 211, (S)- or (R)-1-(1-(4-(1,1-Difluoroethyl)-3-fluorophenyl)ethyl)-6-(dimethylamino)-3-(fluoromethyl)-1H-pyrazolo[3,4-d]pyrimidin-4(5H)-one]",0.048
11,"CC(c1ccc(C(F)(F)F)c(Cl)c1)n1nc(C(F)(F)F)c2c(=O)[nH]c(O)nc21 (single isomer, unassigned) [Example 328, (S)- or (R)-1-(1-(3-Chloro-4-(trifluoromethyl)phenyl)ethyl)-6-hydroxy-3-(trifluoromethyl)-1H-pyrazolo[3,4-d]pyrimidin-4(5H)-one]",3
12,"CCC(c1ccc(C(F)(F)F)cc1)n1nc(C(F)(F)F)c2c(=O)[nH]c(O)nc21 (single isomer, unassigned) [Example 332, (S)- or (R)-6-hydroxy-3-(trifluoromethyl)-1-(1-(4-(trifluoromethyl)phenyl)propyl)-1H-pyrazolo[3,4-d]pyrimidin-4(5H)-one]",3.3
13,"CC1CN(c2nc3c(c(CO)nn3[C@@H](C)c3ccc(C(F)(F)F)cc3)c(=O)[nH]2)C1 [Example 160, 3-(Hydroxymethyl)-6-(3-methylazetidin-1-yl)-1-{(1S)-1-[4-(trifluoromethyl)phenyl]ethyl}-1,5-dihydro-4H-pyrazolo[3,4-d]pyrimidin-4-one]",1.6
14,"CCC(c1ccc(C(F)F)cc1)n1nc(CO)c2c(=O)[nH]c(N(C)C)nc21 (single isomer, unassigned) [Example 92, (R)- or (S)-1-(1-(4-(Difluoromethyl)phenyl)propyl)-6-(dimethylamino)-3-(hydroxymethyl)-1H-pyrazolo[3,4-d]pyrimidin-4(5H)-one]",8.4
15,"CCC(c1ccc(C(F)(F)F)cc1)n1nc(C(F)(F)F)c2c(=O)[nH]c(O)nc21 (single isomer, unassigned) [Example 331, (R)- or (S)-6-Hydroxy-3-(trifluoromethyl)-1-(1-(4-(trifluoromethyl)phenyl)propyl)-1H-pyrazolo[3,4-d]pyrimidin-4(5H)-one]",346
16,"C[C@@H](c1ccc(C(F)(F)F)cc1)n1nc(C(F)F)c2c(=O)[nH]c(N3CCC3)nc21 [compound 290, 6-Azetidin-1-yl-3-(difluoromethyl)-1-{(1S)-1-[4-(trifluoromethyl)phenyl]ethyl}-1,5-dihydro-4H-pyrazolo[3,4-d]pyrimidin-4-one]",0.26
17,"O=c1[nH]c(O)nc2c1c(C(F)F)nn2C(CC(F)(F)F)c1ccc(C(F)(F)F)cc1 (single isomer, unassigned) [Example 271]",911
18,"CC(C)(C)C(c1ccc(C(F)(F)F)cc1)n1nc(C(F)(F)F)c2c(=O)[nH]c(O)nc21 (single isomer, unassigned) [Example 338, (S)- or (R)-1-(2,2-Dimethyl-1-(4-(trifluoromethyl)phenyl)propyl)-6-hydroxy-3-(trifluoromethyl)-1H-pyrazolo[3,4-d]pyrimidin-4(5H)-one]",373
19,"CCC(c1ccc(CC(F)(F)F)cc1)n1nc(CO)c2c(=O)[nH]c(N(C)C)nc21 (single isomer, unassigned) [Example 99, (S)- or (R)-6-(Dimethyiamino)-3-(hydroxymethyl)-1-(1-(4-(2,2,2-trifluoroethyl)phenyl)propyl)-1H-pyrazolo[3,4-d]pyrimidin-4(5H)-one]",0.31
20,"CC(c1ccc(C(F)F)cc1)n1nc(CF)c2c(=O)[nH]c(N(C)C)nc21 (single isomer, unassigned) [Example 190, (R)- or (S)-1-(1-(4-(Difluoromethyl)phenyl)ethyl)-6-(dimethylamino)-3-(fluoromethyl)-1H-pyrazolo[3,4-d]pyrimidin-4(5H)-one]",27
21,"CCC(c1ccc(OC(F)F)c(F)c1)n1nc(CF)c2c(=O)[nH]c(N(C)C)nc21 (single isomer, unassigned) [Example 340, (R)- or (S)-1-(1-(4-(Difluoromethoxy)-3-fluorophenyl)propyl)-6-(dimethylamino)-3-(fluoromethyl)-1H-pyrazolo[3,4-d]pyrimidin-4(5H)-one]",0.58
22,"C[C@@H](c1ccc(C(F)(F)F)cc1)n1nc(CO)c2c(=O)[nH]c(NCCCCl)nc21 [Example 155, 6-[(3-Chloropropyl)amino]-3-(hydroxymethyl)-1-{(1S)-1-[4-(trifluoromethyl)-phenyl]ethyl}-1,5-dihydro-4H-pyrazolo[3,4-d]pyrimidin-4-one]",3.8
23,"CCC(c1ccc(C(F)(F)F)cc1)n1nc(CO)c2c(=O)[nH]c(N(C)C)nc21 (single isomer, unassigned) [Example 72, (R)- or (S)-6-(Dimethylamino)-3-(hydroxymethyl)-1-(1-(4-(trifluoromethyl)phenyl)propyl)-1H-pyrazolo[3,4-d]pyrimidin-4(5H)-one]",2.9
24,"CC1(C(c2ccc(C(F)(F)F)c(F)c2)n2nc(CC(F)(F)F)c3c(=O)[nH]c(O)nc32)CC1 (single isomer, unassigned) [Example 248, (R)- or (S)-1-((3-Fluoro-4-(trifluoromethyl)phenyl)(1-methylcyclopropyl)methyl)-6-hydroxy-3-(2,2,2-trifluoroethyl)-1H-pyrazolo[3,4-d]pyrimidin-4(5H)-one]",47
25,"CC(c1ccc(OC(F)(F)F)c(Cl)c1)n1nc(C(F)(F)F)c2c(=O)[nH]c(O)nc21 (single isomer, unassigned) [Example 321, (R)- or (S)-1-(1-(3-Chloro-4-(trifluoromethoxy)phenyl)ethyl)-6-hydroxy-3-(trifluoromethyl)-1H-pyrazolo[3,4-d]pyrimidin-4(5H)-one]",145
26,"CCC(c1ccc(C(F)F)cc1F)n1nc(CF)c2c(=O)[nH]c(N(C)C)nc21 (single isomer, unassigned) [Example 348, (R)- or (S)-1-(1-(4-(difluoromethyl)-2-fluorophenyl)propyl)-6-(dimethylamino)-3-(fluoromethyl)-1H-pyrazolo[3,4-d]pyrimidin-4(5H)-one]",0.03
